The text below walks through data of US20140094465A1, “Compounds as S-Nitrosoglutathione Reductase Inhibitors” (N30 PHARMACEUTICALS, INC., priority 2011, published 2014).

Experiment [1] addresses T1, S-nitrosoglutathione reductase (GSNOR) (Homo sapiens, UniProt P11766).
T1 construct: made in house; host or cells: E. coli
Kind of experiment: GSNOR assay (inhibition of GSNOR activity, NADH absorbance at 340 nm). Format: biochemical. In outline:
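Recombinant GSNOR purified from E. coli, tag removed. Final conditions: 100 mM NaPO4 pH 7.4, 0.240 mM GSNO, 0.300 mM NADH, 0.5 μg/mL enzyme, 1% DMSO; NADH loss followed as 340 nm absorbance change over 3 min at 25 °C. Compounds 100–0.003 μM, triplicate; IC50 by curve analysis.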

The subject of experiment [2] is ovalbumin (OVA)-induced asthma. Briefly: Mouse model of ovalbumin (OVA)-induced asthma (Penh, eosinophil infiltrate in BALF). It counts as in vivo. The settings on record: three oral doses of 10 mg/kg at 48 h, 24 h, and 1 h prior to assessment. As for the experimental part:
A mouse model of ovalbumin (OVA)-induced asthma was used to screen GSNOR inhibitors for efficacy against methacholine (MCh)-induced bronchoconstriction/airway hyper-responsiveness. This is a widely used and well characterized model that presents with an acute, allergic asthma phenotype with similarities to human asthma. Efficacy of GSNOR inhibitors was assessed using a protocol in which GSNOR inhibitors were administered after OVA sensitization and airway challenge, and prior to challenge with MCh. Bronchoconstriction in response to challenge with increasing doses of MCh was assessed using whole body plethysmography (Penh; Buxco). The amount of eosinophil infiltrate into the bronchoaveolar lavage fluid (BALF) was also determined as a measure of lung inflammation. The effects of GSNOR inhibitors were compared to vehicles and to Combivent (inhaled; IH) as the positive control.
OVA (500 μg/ml) in PBS was mixed with equal volumes of 10% (w/v) aluminum potassium sulfate in distilled water and incubated for 60 min. at room temperature after adjustment to pH 6.5 using 10 N NaOH. After centrifugation at 750×g for 5 min, the OVA/alum pellet was resuspended to the original volume in distilled water. Mice received an intraperitoneal (IP) injection of 100 μg OVA (0.2 mL of 500 μg/mL in normal saline) complexed with alum on day 0. Mice were anesthetized by IP injection of a 0.2-mL mixture of ketamine and xylazine (0.44 and 6.3 mg/mL, respectively) in normal saline and were placed on a board in the supine position. Two hundred fifty micrograms (100 μl of a 2.5 mg/ml) of OVA (on day 8) and 125 μg (50 μl of 2.5 mg/ml) OVA (on days 15, 18, and 21) were placed on the back of the tongue of each animal.
In vivo airway responsiveness to methacholine was measured 24 h after the last OVA challenge in conscious, freely moving, spontaneously breathing mice with whole body plethysmography using a Buxco chamber (Wilmington, N.C.). Mice were challenged with aerosolized saline or increasing doses of methacholine (5, 20, and 50 mg/mL) generated by an ultrasonic nebulizer for 2 min. The degree of bronchoconstriction was expressed as enhanced pause (Penh), a calculated dimensionless value, which correlates with the measurement of airway resistance, impedance, and intrapleural pressure in the same mouse. Penh readings were taken and averaged for 4 min. after each nebulization challenge. Penh is calculated as follows: Penh=[(Te/Tr−1)×(PEF/PIF)], where Te is expiration time, Tr is relaxation time, PEF is peak expiratory flow, and PIF is peak inspiratory flow×0.67 coefficient. The time for the box pressure to change from a maximum to a user-defined percentage of the maximum represents the relaxation time. The Tr measurement begins at the maximum box pressure and ends at 40%.
After measurement of airway hyper-reactivity, the mice were exsanguinated by cardiac puncture, and then BALF was collected from either both lungs or from the right lung after tying off the left lung at the mainstem bronchus. Total BALF cells were counted from a 0.05 mL aliquot, and the remaining fluid was centrifuged at 200×g for 10 min at 4° C. Cell pellets were resuspended in saline containing 10% BSA with smears made on glass slides. Eosinophils were stained for 5 min. with 0.05% aqueous eosin and 5% acetone in distilled water, rinsed with distilled water, and counterstained with 0.07% methylene blue. Alternatively, eosinophils and other leukocytes were stained with DiffQuik.
GSNOR inhibitors were reconstituted in phosphate buffered saline (PBS), pH 7.4, or 0.5% w/v carboxy methylcellulose at concentrations ranging from 0.00005 to 3 mg/mL. GSNOR inhibitors were administered to mice (10 mL/kg) as a single dose or multiple dose either intravenously (IV) or orally via gavage. Dosing was performed from 30 min. to 72 h prior to MCh challenge. Effects of GSNOR inhibitors were compared to vehicle dosed in the same manner.
Combivent was used as the positive control in all studies. […]

For experiment [3], the system named is cigarette smoke-induced COPD. Kind of experiment: Subchronic (11 day) cigarette smoke exposure COPD model. The note with it: for effects compared with roflumilast: roflumilast 5 mg/kg/day. It counts as in vivo, mouse. The protocol:
Infiltration of inflammatory cells into the bronchoalveolar lavage fluid (BALF) and BALF levels of chemokines involved in inflammation and tissue turnover/repair were measured to assess the influences of GSNOR inhibitors on some of the early events associated with the initiation and progression of COPD. […] In animal models, changes in lung pathology are only evident after extended (several months) duration of exposure to cigarette smoke, thus making chronic models prohibitive as effective screening tools. […] The key roles of inflammation in the initiation and progression of COPD, make these short duration models relevant for initial tests of efficacy of novel therapeutics. Female C57Bl/6 mice (N=10 per group) were exposed to cigarette smoke generated from Marlboro 100 cigarettes without filters. Exposure times were 25 min. on study day 1, 35 min. on study day 2, and 45 min. on study days 3 to 11. GSNOR inhibitors were administered one hour prior to smoke exposure on each day. GSNOR inhibitors were dosed orally at 1 to 10 mg/kg/day for 11 days. […] The effect of GSNOR inhibitors were compared to vehicle treated controls and expressed as percent inhibition of the cigarette smoke induced increases in BALF cell numbers. Roflumilast was used as the positive control for the study and was dosed at 5 mg/kg/day. A group of naïve mice (N=10) was exposed to air and dosed with vehicle as a negative control for the study.

Experiment [4] has as its system dextran sodium sulfate (DSS)-induced IBD. Briefly: Acute prophylactic model of DSS-induced IBD. The note with it: oral 10 mg/kg/day for 10 days, prophylactic. Format: in vivo, mouse. An excerpt: Acute and chronic models of dextran sodium sulfate (DSS)-induced IBD in mice were used to explore efficacy of GSNORi against this disease. Acute and chronic DSS-induced IBD are widely used and well characterized models that induce pathological changes in the colon similar to those observed in the human disease. In these models and in human disease, epithelial cells within the crypts of the colon are disrupted, leading to dysfunction of the epithelial barrier and the ensuing tissue inflammation, edema, and ulceration. GSNORi therapy may benefit IBD by restoring s-nitrosoglutathione (GSNO) levels, and thus prevent or reverse the epithelial barrier dysfunction. Experimental IBD was induced by administration of DSS in the drinking water of male C57Bl/6 mice (N=8 to 10 mice per group) for 6 consecutive days. GSNORi was dosed orally at doses of 0.1 to 10 mg/kg/day for 10 days starting two days prior to and continuing two days post DSS exposure. […] Levels of circulating cytokines involved in inflammatory pathways were also assessed. The effect of GSNORi was compared to vehicle treated controls. […] Naïve mice (N=5) were also assessed as a normal tissue control.

Setting [5] is: GSNOR inhibitor activity, Tables 1-6, read-out: IC50 range.
[6] abbreviates: subchronic 11 day model, oral 1 mg/kg/day for 11 days.
Where [7] appears, read: Table 7, GSNOR inhibition, IC50 range class a/b/c, read-out: IC50.

Each structure is given as a SMILES string. Read-outs that look alike come from different tables or passages of the source.

As usually defined, the IC50 is the point on the concentration scale where inhibition reaches its midpoint.

T1 sequence (P11766 whole entry): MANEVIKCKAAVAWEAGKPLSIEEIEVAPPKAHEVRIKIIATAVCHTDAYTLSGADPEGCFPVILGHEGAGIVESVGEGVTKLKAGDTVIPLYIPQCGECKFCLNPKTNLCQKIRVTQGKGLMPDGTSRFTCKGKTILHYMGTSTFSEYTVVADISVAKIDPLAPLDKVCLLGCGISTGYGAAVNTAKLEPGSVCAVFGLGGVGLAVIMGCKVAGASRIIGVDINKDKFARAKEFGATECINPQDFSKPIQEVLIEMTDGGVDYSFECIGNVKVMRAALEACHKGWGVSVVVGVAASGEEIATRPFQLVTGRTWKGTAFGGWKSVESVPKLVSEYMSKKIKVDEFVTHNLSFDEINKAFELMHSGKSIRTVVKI

With `Cc1cc(C(=O)O)ccc1-c1ccc2cc(O)ccc2n1` [Compound I-27], the IC50 in experiment [1] (setting [5]) was less than 0.1 µM. In addition, in experiment [2], the “decrease of eosinophil infiltration in BAL” value is 23 % of vehicle control. For the same molecule, in experiment [3] (setting [6]), the “inhibition of smoke-induced increase in lymphocytes in BAL” value came to 46%, the “inhibition of smoke-induced increase in macrophages in BAL” value is 41%, the “inhibition of smoke-induced increase in neutrophils in BAL” value is listed as 64% and the “inhibition of smoke-induced increase in total cells in BAL” value was found to be 44%. In addition, the “effects compared with roflumilast” value in experiment [3] (subchronic 11 day model) is recorded as “comparable to those of roflumilast”.

In the case of `O=C(O)c1ccc(-c2ccc3cc(O)ccc3n2)c(Cl)c1` [Compound I-8, 3-chloro-4-(6-hydroxyquinolin-2-yl)benzoic acid], the IC50 in experiment [1] (setting [5]) was less than 0.1 µM. Further, in experiment [4], the “decrease of percent of mice with severe colon injury scores via endoscopy” value is recorded as 44 % of vehicle control and the “decrease of percent of mice with severe colon injury scores via histopathology” value was 26 % of vehicle control. Also, the “dose response of effect” value in experiment [3] (subchronic 11 day model, 1, 5, or 10 mg/kg/day) was “no dose response of effect”. Moreover, the “effects compared with roflumilast” value in experiment [3] (subchronic 11 day model) was “comparable to those of roflumilast”.

As to `CC(C)n1c(-c2ccc(O)cc2)ccc1-c1ccc(C(=O)O)cc1` [VII-32, 4-(5-(4-hydroxyphenyl)-1-isopropyl-1H-pyrrol-2-yl)benzoic acid], the concentration for half-maximal inhibition (IC50) in experiment [1] (setting [7]) was less than 0.1 µM.

As for `CC(C)Cn1c(-c2ccc(O)cc2)ccc1-c1ccc(C(=O)O)cc1` [VII-29, 4-(5-(4-hydroxyphenyl)-1-isobutyl-1H-pyrrol-2-yl)benzoic acid], the IC50 in experiment [1] (setting [7]) was less than 0.1 µM.

`O=C(O)c1ccc(-c2ccc3cc(O)ccc3[n+]2[O-])c(Cl)c1` [Compound I-50, 2-(4-carboxy-2-chlorophenyl)-6-hydroxyquinoline 1-oxide]: the IC50 in experiment [1] (setting [5]) lay within 0.1 to 1 µM.

Take `COc1cc(C(=O)O)ccc1-c1ncc2cc(O)ccc2n1` [II-5]: the IC50 in experiment [1] (setting [5]) was less than 0.1 µM.

For `O=C(O)c1ccc(CC(=O)c2ccc(O)c(F)c2F)cc1` [VI-5, 4-(2-(2,3-difluoro-4-hydroxyphenyl)-2-oxoethyl)benzoic acid], the IC50 in experiment [1] (setting [5]) was less than 0.1 µM.

As for `O=C(O)c1ccc(/C=C/c2ccc(O)cc2O)cc1` [VI-13, (E)-4-(2,4-dihydroxystyryl)benzoic acid], the IC50 in experiment [1] (setting [5]) lay within 1 to 10 µM.

Turning to `O=C(O)c1ccc(-c2ccc3c(F)c(O)ccc3n2)c(F)c1` [Compound I-56], the IC50 in experiment [1] (setting [5]) was less than 0.1 µM.

On to `O=C(O)c1cccc(-c2csc(-c3ccc(O)cc3)n2)c1` [VII-18, 3-(2-(4-hydroxyphenyl)thiazol-4-yl)benzoic acid], for which the 50% inhibitory concentration (IC50) in experiment [1] (setting [7]) is 1 to 10 µM.

For the molecule `O=C(O)c1ccc(-c2ncc3cc(O)ccc3n2)c(F)c1` [II-6], the IC50 in experiment [1] (setting [5]) is less than 0.1 µM.

For `O=C(O)c1ccc(-c2cnc(-c3ccc(O)cc3)nc2)cc1` [VII-15, 4-(2-(4-hydroxyphenyl)pyrimidin-5-yl)benzoic acid], the IC50 in experiment [1] (setting [7]) lay within 1 to 10 µM.

With `Cc1cc2cc(O)ccc2nc1-c1ccc(C(=O)O)cc1` [Compound I-1], the IC50 in experiment [1] (setting [5]) is less than 0.1 µM.

As to `CCCCCCn1c(-c2ccc(O)cc2)ccc1-c1ccc(C(=O)O)cc1` [VII-34, 4-(1-hexyl-5-(4-hydroxyphenyl)-1H-pyrrol-2-yl)benzoic acid], the concentration for half-maximal inhibition (IC50) in experiment [1] (setting [7]) is less than 0.1 µM.

Regarding `Cc1c(-c2ccc(C(=O)O)cc2)ncc2cc(O)ccc12` [II-25, 4-(7-hydroxy-4-methylisoquinolin-3-yl)benzoic acid], in experiment [1] (setting [5]), the concentration for half-maximal inhibition (IC50) lay within 0.1 to 1 µM.

Take `O=C(O)c1ccc(-c2ccc3cc(O)ccc3n2)c(C(F)(F)F)c1` [Compound I-30]: the IC50 in experiment [1] (setting [5]) is less than 0.1 µM.

In the case of `O=C(O)c1ccc(-c2ccc3cc(O)ccc3c2F)cc1` [III-26, 4-(1-fluoro-6-hydroxynaphthalen-2-yl)benzoic acid], the concentration for half-maximal inhibition (IC50) in experiment [1] (setting [5]) is less than 0.1 µM.

Consider `O=c1nc(-c2ccc(-c3ccc4cc(O)ccc4n3)cc2)[nH]o1` [Compound I-12], for which the 50% inhibitory concentration (IC50) in experiment [1] (setting [5]) is less than 0.1 µM.

For the molecule `Cc1oc2cc(O)ccc2c(=O)c1-c1ccc(C(=O)O)cc1` [IV-5], in experiment [1] (setting [5]), the half-maximal inhibitory concentration (IC50) fell in the range of 0.1 to 1 µM.

On to `COc1cc(Oc2c(C(F)(F)F)oc3cc(O)ccc3c2=O)ccc1C(=O)O` [Compound V-5], for which, in experiment [1] (setting [5]), the IC50 is 1 to 10 µM.

For `O=C(O)c1ccc(-c2ccc(-c3ccc(O)cc3)s2)cc1` [VII-4, 4-(5-(4-hydroxyphenyl)thiophen-2-yl)benzoic acid], the IC50 in experiment [1] (setting [7]) was in the range of 0.1 to 1 µM.

As for `O=C(O)c1ccc(-c2ccc3cc(O)ccc3c2)cc1O` [III-35, 2-hydroxy-4-(6-hydroxynaphthalen-2-yl)benzoic acid], the IC50 in experiment [1] (setting [5]) was less than 0.1 µM.

As to `O=C(O)c1ccc(COc2ccc(O)c(F)c2F)c(F)c1` [VI-21, 4-((2,3-difluoro-4-hydroxyphenoxy)methyl)-3-fluorobenzoic acid], the half-inhibitory concentration (IC50) in experiment [1] (setting [5]) was less than 0.1 µM.

Regarding `Cc1cc2cc(O)ccc2c(=O)n1[C@H]1CC[C@H](C(=O)O)CC1` [VIII-12, (trans)-4-(6-hydroxy-3-methyl-1-oxoisoquinolin-2(1H)-yl)cyclohexanecarboxylic acid], the concentration for half-maximal inhibition (IC50) in experiment [1] (Table 8, GSNOR inhibition, IC50 range class a/b/c, read-out: IC50) lay in the range of 0.1 to 1 µM.

As to `O=C(O)c1ccc(-c2ncc(-c3ccc(O)cc3)s2)s1` [VII-13, 5-(5-(4-hydroxyphenyl)thiazol-2-yl)thiophene-2-carboxylic acid], the 50% inhibitory concentration (IC50) in experiment [1] (setting [7]) lay in the range of 0.1 to 1 µM.

Consider `O=C(O)c1ccc(-c2ccc3cc(O)cc(F)c3n2)cc1` [Compound I-54, 4-(8-fluoro-6-hydroxyquinolin-2-yl)benzoic acid], for which the concentration for half-maximal inhibition (IC50) in experiment [1] (setting [5]) was less than 0.1 µM.
